In publication PMC12645083, “Microwave‐Enhanced Synthesis of 2‐Styrylquinoline‐4‐Carboxamides With Promising Anti‐Lymphoma Activity” (Archiv Der Pharmazie, 2025):

What was measured:
Experiment in all cases: In vitro antiproliferative activity, resazurin cell viability
Format in all cases: cell-based
SU-DHL-8 = settings: Homo sapiens, B lymphocyte, large cell lymphoma, 72 h of treatment, mean ± SEM
Procedure: (§1) To test the newly synthesized compounds, various human cell lines were employed. HD‐MB03 cells were purchased from DSMZ (Braunschweig, Germany), while A549, MDA‐MB‐231, RPMI‐8420, SU‐DHL‐8, TOLEDO, VL51, SU‐DHL‐1, SU‐DHL‐18, and KM‐H2 were obtained from ATCC (Manassas, VA, USA). Cells were cultured in DMEM (for MDA‐MB‐231 and A549) or RPMI‐1640 (for RPMI‐8420, SU‐DHL‐8, TOLEDO, VL51, SU‐DHL‐1, SU‐DHL‐18, KM‐H2, and HD‐MB03) media (Gibco, Milan, Italy). Both media were supplemented with 115 units/mL penicillin G (Gibco, Milan, Italy), 115 µg/mL streptomycin (Invitrogen, Milan, Italy), and 10% fetal bovine serum (Invitrogen, Milan, Italy). Peripheral blood mononuclear cells (PBMCs) were isolated from healthy donors as previously described. For cytotoxicity assays, PBMCs were resuspended at 5 × 10⁵ cells/mL in complete RPMI medium with or without 2.5 µg/mL phytohemagglutinin (PHA) (Irvine Scientific) to stimulate T‐cell activation and proliferation. All cell lines were maintained at 37°C in a humidified atmosphere containing 5% CO₂. All compounds were dissolved in DMSO at a 10 mM stock concentration. For dose–response assays, cells were seeded in 96‐well plates at densities optimized for each cell line: HD‐MB03 at 10,000 cells/well, A549 at 4000 cells/well, and MDA‐MB‐231 at 7000 cells/well. All other cell lines were seeded at 20,000 cells/well in a final volume of 100 µL per well. After 24 h, cells were treated with a 6‐point serial dilution of compounds starting from 10 µM, in triplicate for statistical analysis. Seventy‐2 h posttreatment, 10 µL of resazurin solution (100 µg/mL) was added to each well, and cells were incubated for an additional 3–6 h. Fluorescence was measured using a Spark 10 M microplate reader (Tecan Group Ltd., Männedorf, Switzerland) with excitation at 535 nm and emission at 600 nm. The IC₅₀ was defined as the concentration of compound required to inhibit cell proliferation by 50% compared to cells treated with the highest DMSO concentration.
(§2) To test the newly synthesized compounds, various human cell lines were employed. HD-MB03 cells were purchased from DSMZ (Braunschweig, Germany), while A549, MDA-MB-231, RPMI-8420, SU-DHL-8, TOLEDO, VL51, SU-DHL-1, SU-DHL-18, and KM-H2 were obtained from ATCC (Manassas, VA, USA). Cells were cultured in DMEM (for MDA-MB-231 and A549) or RPMI-1640 (for RPMI-8420, SU-DHL-8, TOLEDO, VL51, SU-DHL-1, SU-DHL-18, KM-H2, and HD-MB03) media (Gibco, Milan, Italy). Both media were supplemented with 115 units/mL penicillin G (Gibco, Milan, Italy), 115 µg/mL streptomycin (Invitrogen, Milan, Italy), and 10% fetal bovine serum (Invitrogen, Milan, Italy). Peripheral blood mononuclear cells (PBMCs) were isolated from healthy donors as previously described. ^[1] For cytotoxicity assays, PBMCs were resuspended at 5 × 10⁵ cells/mL in complete RPMI medium with or without 2.5 µg/mL phytohemagglutinin (PHA) (Irvine Scientific) to stimulate T cell activation and proliferation. All cell lines were maintained at 37 °C in a humidified atmosphere containing 5% CO₂. All compounds were dissolved in DMSO at a 10 mM stock concentration. For dose–response assays, cells were seeded in 96-well plates at densities optimized for each cell line: HD-MB03 at 10,000 cells/well, A549 at 4,000 cells/well, and MDA-MB-231 at 7,000 cells/well. All other cell lines were seeded at 20,000 cells/well in a final volume of 100 µL per well. After 24 hours, cells were treated with a 6-point serial dilution of compounds starting from 10 µM, in triplicate for statistical analysis. Seventy-two hours post-treatment, 10 µL of resazurin solution (100 µg/mL) was added to each well, and cells were incubated for an additional 3–6 hours. Fluorescence was measured using a Spark 10M microplate reader (Tecan Group Ltd., Männedorf, Switzerland) with excitation at 535 nm and emission at 600 nm. […]

HD-MB03 = settings: Homo sapiens, medulloblastoma cells, 72 h of treatment, mean ± SEM, at least three experiments
Procedure: as §1, §2

MDA-MB-231 = settings: Homo sapiens, triple-negative breast cancer, 72 h of treatment, mean ± SEM
Procedure: as §1, §2

A549 = settings: Homo sapiens, non-small cell lung cancer, 72 h of treatment, mean ± SEM
Procedure: as §1, §2

RPMI-8402 = settings: Homo sapiens, T-lymphoblastic leukemia cells, 72 h of treatment, mean ± SEM
Procedure: as §1, §2

SMILES | IC50 (SU-DHL-8) [µM] | IC50 (HD-MB03) [µM] | IC50 (MDA-MB-231) [µM] | IC50 (A549) [µM] | IC50 (RPMI-8402) [µM]
COc1cc(/C=C/c2cc(C(=O)Nc3ccccc3)c3ccccc3n2)cc(OC)c1OC [4k, (E)-N-phenyl-2-(3,4,5-trimethoxystyryl)quinoline-4-carboxamide] | 5.33 ± 0.52 | > 10 | > 10 | > 10 | > 10
O=C(Nc1ccc(C(F)(F)F)cc1)c1cc(/C=C/c2ccccc2[N+](=O)[O-])nc2ccccc12 [4ac, (E)-2-(2-nitrostyryl)-N-(4-(trifluoromethyl)phenyl)quinoline-4-carboxamide] | > 10 | > 10 | > 10 | > 10 | > 10
COc1cc(/C=C/c2cc(C(=O)Nc3cccc(C)c3)c3ccccc3n2)cc(OC)c1OC [4l, (E)-N-(m-tolyl)-2-(3,4,5-trimethoxystyryl)quinoline-4-carboxamide] | 2.94 ± 0.08 | > 10 | 5.95 ± 0.66 | 9.34 ± 0.18 | 3.75 ± 0.18
Cc1cccc(C)c1NC(=O)c1cc(/C=C/c2ccccc2)nc2ccccc12 [4d, (E)-N-(2,6-dimethylphenyl)-2-styrylquinoline-4-carboxamide] | 6.53 ± 1.49 | > 10 | 5.6 ± 0.79 | > 10 | > 10
Cc1cccc(/C=C/c2cc(C(=O)Nc3ccc([N+](=O)[O-])c(C(F)(F)F)c3)c3ccccc3n2)c1 [4u, (E)-2-(3-methylstyryl)-N-(4-nitro-3-(trifluoromethyl)phenyl)quinoline-4-carboxamide] | > 10 | > 10 | > 10 | > 10 | > 10
COc1cc(NC(=O)c2cc(/C=C/c3ccccc3)nc3ccccc23)cc(OC)c1OC [4e, (E)-2-styryl-N-(3,4,5-trimethoxyphenyl)quinoline-4-carboxamide] | 6.61 ± 0.76 | 7.1 ± 1.15 | > 10 | > 10 | > 10
COc1cc(/C=C/c2cc(C(=O)Nc3ccc(Cl)cc3)c3ccccc3n2)cc(OC)c1OC [4q, (E)-N-(4-chlorophenyl)-2-(3,4,5-trimethoxystyryl)quinoline-4-carboxamide] | 4.61 ± 0.84 | > 10 | > 10 | > 10 | > 10
COc1cc(/C=C/c2cc(C(=O)Nc3cc(OC)c(OC)c(OC)c3)c3ccccc3n2)cc(OC)c1OC [4o, (E)-N-(3,4,5-trimethoxyphenyl)-2-(3,4,5-trimethoxystyryl)quinoline-4-carboxamide] | 2.09 ± 0.14 | > 10 | 5.95 ± 0.89 | > 10 | 4.55 ± 0.42
O=C(Nc1ccc(Cl)cc1)c1cc(/C=C/c2ccc(Cl)c(Cl)c2)nc2ccccc12 [4ag, (E)-N-(4-chlorophenyl)-2-(3,4-dichlorostyryl)quinoline-4-carboxamide] | 3.49 ± 0.11 | 6.93 ± 0.06 | 5.52 ± 0.22 | 7.71 ± 0.56 | 6.42 ± 0.43
O=C(Nc1ccc(C(F)(F)F)cc1)c1cc(/C=C/c2ccc(Br)cc2)nc2ccccc12 [4aa, (E)-2-(4-bromostyryl)-N-(4-(trifluoromethyl)phenyl)quinoline-4-carboxamide] | > 10 | > 10 | > 10 | > 10 | > 10
